Source: publication PMC5585036 (Molecular pharmaceutics, 2017)
One block for each molecule: values may come before it.

Assays:
[1] = molecular target: T1, Monocarboxylate transporter 6 (MCT6) (Homo sapiens, UniProt O15375); test: inhibition of [3H]bumetanide uptake in MCT6-expressing oocytes; assay type: cell-based
T1 sequence (O15375 1-505): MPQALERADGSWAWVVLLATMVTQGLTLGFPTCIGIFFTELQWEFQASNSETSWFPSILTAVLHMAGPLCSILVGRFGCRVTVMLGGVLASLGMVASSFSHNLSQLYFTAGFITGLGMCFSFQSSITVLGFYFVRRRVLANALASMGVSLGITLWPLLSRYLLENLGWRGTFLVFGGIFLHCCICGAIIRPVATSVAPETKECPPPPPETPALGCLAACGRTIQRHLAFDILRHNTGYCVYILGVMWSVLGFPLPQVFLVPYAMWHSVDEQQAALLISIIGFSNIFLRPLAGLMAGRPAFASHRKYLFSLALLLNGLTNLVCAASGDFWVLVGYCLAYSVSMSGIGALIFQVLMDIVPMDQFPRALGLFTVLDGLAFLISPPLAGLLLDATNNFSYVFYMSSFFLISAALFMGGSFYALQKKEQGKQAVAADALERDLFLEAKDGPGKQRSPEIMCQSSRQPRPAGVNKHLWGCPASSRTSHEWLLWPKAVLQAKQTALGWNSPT

[2] = molecular target: T1, Monocarboxylate transporter 6 (MCT6); assay type: cell-based
[3] = substrate: CCCCNc1cc(C(=O)O)cc(S(N)(=O)=O)c1Oc1ccccc1; test: radiolabeled uptake in MCT6-expressing versus water-injected oocytes; assay type: cell-based, Homo sapiens

Ki [1]: 22.8 ± 6.95 µM
Molecule: O=C(CCc1ccc(O)cc1)c1c(O)cc(O)cc1O [phloretin]

Molecule: O=c1c(O)c(-c2ccc(O)cc2O)oc2cc(O)cc(O)c12 [morin]
IC50 [2]: 33.1 ± 3.29 µM

Molecule: O=c1c(O)c(-c2ccc(O)c(O)c2)oc2cc(O)cc(O)c12 [quercetin]
IC50 [2]: 25.3 ± 3.36 µM

B1: Monocarboxylate transporter 6 (MCT6) (Homo sapiens) (protein)
chain: T1 sequence (O15375 1-505)
Km [3]: 60.5 ± 14.1 µM
